{
  "source": "patent US20100000032A1",
  "about": "“PHENOXAZINE DYES” (Wetlands Incubator sprl, priority 2008, published 2010)",
  "key": {"[1]": {"experiment": "Light fastness of dyeing, ISO 105 B02", "format": "physicochemical", "conditions": "polyamide 6 knitted fabric, rating 5 = no colour change, 1 = high colour change", "experimental": "(§1) The fastness properties of the dyeings (textile and leather) were measured in accordance with ISO standards mentioned in Table 3. The results shown in Table 3 are the visual assessment described in ISO105-A02: 1993 textiles—test for colour fastness—part A02. On this scale, a rating of 5 means no colour change and a rating of 1 means a high colour change."}, "[2]": {"experiment": "Washing fastness of dyeing, ISO 105 C06: A2S", "format": "physicochemical", "conditions": "for Washing fastness, staining, acrylic / Washing fastness, staining, cellulose acetate / Washing fastness, staining, cotton / Washing fastness, staining, nylon / Washing fastness, staining, polyester / Washing fastness, staining, wool: rating 1-5; for Washing fastness, colour change: polyamide 6 knitted fabric, rating 5 = no colour change, 1 = high colour change", "experimental": "as §1"}, "[3]": {"experiment": "Water fastness of dyeing, ISO 105 E01", "format": "physicochemical", "conditions": "for Water fastness, staining, acrylic / Water fastness, staining, cellulose acetate / Water fastness, staining, cotton / Water fastness, staining, nylon / Water fastness, staining, polyester / Water fastness, staining, wool: rating 1-5; for Water fastness, colour change: polyamide 6 knitted fabric, rating 5 = no colour change, 1 = high colour change", "experimental": "as §1"}, "[4]": {"experiment": "Chlorinated water fastness of dyeing, ISO 105 E03", "format": "physicochemical", "conditions": "polyamide 6 knitted fabric, rating 5 = no colour change, 1 = high colour change", "experimental": "as §1"}, "[5]": {"tested_on": "Caco-2 human intestinal cell line", "experiment": "In vitro toxicity, neutral red uptake", "format": "cell-based", "conditions": "concentration at which 50% of the cells die, exposure at least 48 hr, highest concentration tested 0.5 g/L", "experimental": "(§2) The toxicity of compounds 17 and 18 were assessed with an in vitro method using the Caco-2 human intestinal cell line and the rainbow trout gonad (RTG-2) fish cell line. […] Subsequently, the cells were exposed to a series of concentrations of the test compounds, and two blanks, for at least 48 hr until 90% confluence was attained in the blanks. The highest concentration tested being 0.5 g/L. Thereafter, the exposure medium containing the test compounds was decanted and the cells in the microplate wells were gently washed with phosphate buffered saline solution. In order to measure the number of viable cells remaining after the exposure to the test compounds, the cells were exposed to a solution of neutral red in cell culture medium for 3 hr. […] Finally, the neutral red solution was decanted, the wells were again gently washed and then a solution of 1% acetic acid in 50% ethanol was added to the wells to dissolve the neutral red taken up by the viable cells. The absorbance of each well at 540 nm was measure with an appropriate microplate reader. The amount of neutral red present in each well is an indication of the number of viable cells and when compared to the values for the blanks can be used to calculate a percentage of cell death. An IC50 value, the concentration of the test compounds at which 50% of the cells die, can be determined if at least one of the tested compounds produces more than 50% cell death and at least one produces less; the results concerning compounds 17 and 18 are given in Table 4. If none of the tested concentrations produces more than 50% cell death, than an estimating can be made if at least some effect is noticeable. Comparing IC50 values among test compounds and with known toxicants allows for an assessment of their relative toxicities."}, "[6]": {"tested_on": "rainbow trout gonad (RTG-2) fish cell line", "experiment": "In vitro toxicity, neutral red uptake", "format": "cell-based", "conditions": "Oncorhynchus mykiss, concentration at which 50% of the cells die, exposure at least 48 hr, highest concentration tested 0.5 g/L, read-out: NRTG-2 cells IC50", "experimental": "as §2"}},
  "data": [
    {"smiles": "Nc1c(S(=O)(=O)O)c2nc3c(S(=O)(=O)O)cccc3oc-2cc1=O", "note": "[Compound 17, 2-Amino-3oxo-3H-phenoxazine-1,9-disulfonic acid]", "values": [
      {"measurement": "Light fastness", "setting": "[1]; 2% omf", "result": ">3"},
      {"measurement": "Washing fastness, staining, acrylic", "setting": "[2]; 2% omf", "result": "4/5"},
      {"measurement": "Washing fastness, staining, cellulose acetate", "setting": "[2]; 2% omf", "result": "4/5"},
      {"measurement": "Washing fastness, staining, cotton", "setting": "[2]; 2% omf", "result": "4/5"},
      {"measurement": "Washing fastness, staining, nylon", "setting": "[2]; 2% omf", "result": "3/4"},
      {"measurement": "Washing fastness, staining, polyester", "setting": "[2]; 2% omf", "result": "4/5"},
      {"measurement": "Washing fastness, staining, wool", "setting": "[2]; 2% omf", "result": 4},
      {"measurement": "Washing fastness, colour change", "setting": "[2]; 2% omf", "result": 3},
      {"measurement": "Water fastness, staining, acrylic", "setting": "[3]; 2% omf", "result": "4/5"},
      {"measurement": "Water fastness, staining, cellulose acetate", "setting": "[3]; 2% omf", "result": "4/5"},
      {"measurement": "Water fastness, staining, cotton", "setting": "[3]; 2% omf", "result": "4/5"},
      {"measurement": "Water fastness, staining, nylon", "setting": "[3]; 2% omf", "result": "3/4"},
      {"measurement": "Water fastness, staining, polyester", "setting": "[3]; 2% omf", "result": "4/5"},
      {"measurement": "Water fastness, staining, wool", "setting": "[3]; 2% omf", "result": 4},
      {"measurement": "Water fastness, colour change", "setting": "[3]; 2% omf", "result": 3},
      {"measurement": "Chlorinated water fastness, colour change", "setting": "[4]; 2% omf", "result": 3},
      {"measurement": "IC50", "setting": "[5]", "result": "> 550", "unit": "µg/mL"},
      {"measurement": "IC50", "setting": "[6]", "result": "> 780", "unit": "µg/mL"}
    ]},
    {"smiles": "Nc1cc2nc3cc(S(=O)(=O)O)ccc3oc-2cc1=O", "note": "[Compound 18, 2-Amino-3oxo-3H-phenoxazine-8-sulfonic acid]", "values": [
      {"measurement": "Light fastness", "setting": "[1]; 1% omf", "result": 3},
      {"measurement": "Washing fastness, staining, acrylic", "setting": "[2]; 1% omf", "result": "4/5"},
      {"measurement": "Washing fastness, staining, cellulose acetate", "setting": "[2]; 1% omf", "result": "4/5"},
      {"measurement": "Washing fastness, staining, cotton", "setting": "[2]; 1% omf", "result": "4/5"},
      {"measurement": "Washing fastness, staining, nylon", "setting": "[2]; 1% omf", "result": "4/5"},
      {"measurement": "Washing fastness, staining, polyester", "setting": "[2]; 1% omf", "result": "4/5"},
      {"measurement": "Washing fastness, staining, wool", "setting": "[2]; 1% omf", "result": "4/5"},
      {"measurement": "Washing fastness, colour change", "setting": "[2]; 1% omf", "result": 4},
      {"measurement": "Water fastness, staining, acrylic", "setting": "[3]; 1% omf", "result": "4/5"},
      {"measurement": "Water fastness, staining, cellulose acetate", "setting": "[3]; 1% omf", "result": 4},
      {"measurement": "Water fastness, staining, cotton", "setting": "[3]; 1% omf", "result": 4},
      {"measurement": "Water fastness, staining, nylon", "setting": "[3]; 1% omf", "result": 3},
      {"measurement": "Water fastness, staining, polyester", "setting": "[3]; 1% omf", "result": "4/5"},
      {"measurement": "Water fastness, staining, wool", "setting": "[3]; 1% omf", "result": "2/3"},
      {"measurement": "Water fastness, colour change", "setting": "[3]; 1% omf", "result": 4},
      {"measurement": "Chlorinated water fastness, colour change", "setting": "[4]; 1% omf", "result": "3/4"},
      {"measurement": "IC50", "setting": "[5]", "result": "> 686", "unit": "µg/mL"}
    ]}
  ]
}
